Assay results: a melting point compilation (Tetko et al.; mined from patent text by program, amines drawn as free bases though some values may be those of a salt)

SMILES	melting point [°C]
CC(C)(C)OC1CC(n2cnc3c(Cl)ncnc32)C2CC12COCc1ccccc1 (configuration not stated)	112 to 113
COc1ccc(C)cc1NC(=O)Nc1ccc(N2CCN(C(N)=O)CC2)cc1	136
COc1cc(OC)nc(C(=O)c2nccc(-c3ccccc3)c2C(=O)n2ccnc2)c1	126 to 128
Cc1ccc(Cl)c2c(C)c(C(=O)O)[nH]c12	211 to 213
Cc1nc(O)c(F)c(Cl)n1	214 to 216
N#Cc1cccc(Oc2ccccc2N)c1C#N	132
COc1ccc(CNc2nnc(OCCCO)c3ccc(Cl)cc23)cc1Cl	124 to 126
CC(CN1CCCC1)N1c2ccccc2Sc2ccc(C(=O)NCc3c(Cl)cccc3Cl)cc21 (racemic)	138
CCCCC(=O)Oc1cccc(NC(=O)C=C(C)OC)c1	84
CCOC(=O)c1ccc(Cn2cnc3cccnc32)cc1	104 to 106
COc1cc(NC(NC(C)C(C)(C)C)=C(C#N)S(=O)(=O)c2ccc(Cl)cc2)cc(OC)c1 (configuration not stated)	178 to 179
FC(F)(F)c1cc2ccccc2[nH]1	102
CCOC(=O)CN(C)C(=O)CCN(C(=O)c1ccc(Cl)cc1)c1ccc(OC)cc1	104 to 106
COC(=O)c1cccc(F)c1OC	99 to 101
CN1c2ccccc2Sc2cc(C=Cc3ccc(-c4ccc(C=Cc5ccc6c(c5)Sc5ccccc5N6C)cc4)cc3)ccc21	380
NC(=O)C(c1ccc(C(=O)O)cc1)C(CCc1ccccc1)c1ccccc1N1CCCCC1 (configuration not stated)	167 to 170
ClCCOc1ccc2c(c1)CCC2	45 to 46
CCCC1COc2cc(C3COc4cc(C#N)c(F)cc4C3)c(F)cc2C1 (configuration not stated)	122
COc1cc(C(C)C)c2oc3ccccc3c2c1C(=O)Nc1c(Cl)cncc1Cl	209 to 211
CS(=O)(=O)Nc1cc2oc(C(=O)O)cc(=O)c2cc1Oc1ccccc1	> 250
Cc1cccc(NC(=O)NCC2(c3ccccc3)CCCCC2)c1	145 to 147
COC(=O)[C@H]1C[C@H](NC(=O)Oc2ccccc2)c2c(Cl)cc(Cl)cc2N1 (relative stereo)	159 to 161
CC(C)(C)OC(=O)N[C@H]1CN(Cc2ccccc2)[C@@H]2CCCO[C@H]12 (relative stereo)	82 to 84
COc1ccc2c(c1OC)CCN(Cc1ccccc1)Cc1cc3c(cc1C=C2)OCO3	129 to 132

SMILES	melting point [°C]
[O-][N+]1=C(c2ccccc2)c2cc(Cl)ccc2C=CC1	122 to 123
CC(C)OC(=O)c1nc(Cl)c(-c2c(F)cc(F)cc2F)c(N[C@@H](C)C(F)(F)F)n1	146 to 147
CNC(=O)Oc1cccc(NC(=O)C=C(C)OC)c1	175
CN(C)C(=O)c1ccc(-c2ccc(NC(=O)Nc3cccc(C(F)(F)F)c3)c(-c3n[nH]c(=O)[nH]3)c2)cc1	212
C=CCS(=O)(=O)c1ccc(N2CC=C(c3ccc(Cl)cc3)N2)cc1	210
CCOC(=O)c1ccc(NCCOc2cccc3c2CCCC3)cc1	133 to 135
Cc1ccc2c3c(ccc2n1)OC[C@H](CN1CCN(c2ccc4ccccc4n2)C[C@@H]1C)O3	78 to 82
O=c1oc2c(c(O)c1C(c1ccccc1)C1CC1)CCCCCC2CC1CCCCO1 (configuration not stated)	88 to 93
COC(=O)c1ccc2c(c1)N(C)C(=O)c1cccnc1N2	273 to 276
COC(=O)C(=O)C(CCCc1ccccc1)CS(=O)(=O)c1ccc(OC)cc1 (configuration not stated)	95
CCC(=O)Oc1ccc(C(=O)CC)cc1F	104 to 106
COc1nc(C(F)(F)F)cc(=O)n1-c1cc(OCCON=C(C)C)c(Br)cc1F	149 to 150
O=C(c1c[nH]c2nc(Cl)ccc12)N1CCN2CCC1CC2	228 to 229
CCCCCC(=O)c1c[nH]c2c(OC)cccc2c1=O	169 to 171
CC(=O)Nc1ncc(S(=O)(=O)NCC(O)(Cn2cncn2)c2ccc(Cl)cc2Cl)s1 (configuration not stated)	96 to 112
COC(=O)c1cnc2c(c1)CCCCC2	129 to 131
CCCc1nc2c(N)nc3ccccc3c2n1CCOCCCS(=O)(=O)c1ccccc1	160 to 161
COc1ccc(C(=O)NNC(=O)N(C)C)cc1	218 to 220
CCn1nc(C#N)c(Br)c1CC(C)C	50 to 51
CS(=O)(=O)c1ccc(C(CC2CCCC2)C(=O)O)cc1C#N (configuration not stated)	180 to 181
O=C(O)c1cccc(Cc2c(-c3ccc(OC(F)F)c(OC4CC4)c3)[nH]c3cn[nH]c(=O)c23)c1	155 to 163
CC1=C(c2cccc(Cl)c2)n2ncc(C#N)c2N(C(=O)CCl)C1	132 to 135
CN(C)C1(c2cccc(O)c2)CCC(=O)CC1	175 to 177
O=C(O)CCc1cc2nc(Cl)ccc2n1S(=O)(=O)c1ccc2c(c1)CCN2	79

SMILES	melting point [°C]
CC(=CC(=O)NCc1cccc(CNC(=O)C=C(C)C(=O)O)c1)C(=O)O	148 to 150
S=C(NC(=Nc1ccccc1)c1ccccc1)Nc1ccccc1	143 to 144
CC(C#N)=C1CCN(c2ccc(N3C[C@H](CNC(=O)C(Cl)Cl)OC3=O)cc2F)CC1	202 to 204
CCOC(=O)c1cc2n(CC)c3ccc(Cl)cc3c(=O)n2n1	256 to 257
Clc1cc(-c2cnc3c(c2)N(Cc2c(Cl)cccc2Cl)CCN3)ccn1	194
CC1CCN(CCNc2ccnc3cc(Cl)ccc23)CC1	154 to 156
Cc1cc(=O)n2cccc(S)c2n1	240 to 241
CC(C)(C)OC(=O)NC(Cc1ccc(C=O)cc1)C(=O)N1CCCC1 (configuration not stated)	134
CC1(C)NC(=O)N(c2cc(Cl)c(F)c(Cl)c2)C1=O	175 to 176
COC(=N)c1ccc(C(=O)O)cn1	284 to 286
Cn1c(C(F)(F)F)ccc(-c2cc(S(C)=O)c(Cl)cc2F)c1=O (configuration not stated)	147 to 148
CC(=O)NC1CCN(CCCOc2ccc3c4c(c(=O)oc3c2)CCCC4)CC1	90 to 92
CC(N=Cc1ccc(O)cc1)C1CCCCC1 (single isomer, unassigned; (+))	130 to 132
FC(F)(F)CN1CCC(n2ccc3ccccc32)CC1	79 to 81
Cc1cccc2cc3c(=O)n(CCc4c[nH]c5ccccc45)cc(C(=O)NCCN(C)C)c3nc12	105 to 107
CC(=O)Nc1nc2c(s1)C(=O)CCC2	268 to 272
CCOC(=O)CNC(=O)CC(O)CBr (configuration not stated)	59 to 61
NS(=O)(=O)c1ccc(-n2nc(CCl)cc2-c2ccc(Cl)cc2)cc1	198 to 201
O=C1CCC2=C(CCc3cc(F)ccc32)N1Cc1ccccc1	101 to 102
Nc1cccc(C(=O)Nc2ccc(-c3ccc(C(=O)N4CCN5CCC4CC5)o3)cc2)c1	249 to 252
O=C(OCC1OC(n2cc(F)c(=O)[nH]c2=O)C(O)C1O)C1CCCN1C(=O)OCc1ccccc1 (configuration not stated)	137 to 144
C=C(C)Cc1c(O)c(C)c(C)c2c1CC(C)(C)N2C=O	116 to 118
COC(=O)c1ccc(OC)cc1I	185
COC(=O)c1ccc(Cc2cn(C(C)C)c3ccc(C=CCC(=O)N(C)C)cc23)c(OC)c1	118 to 120
